Entries after “also recorded” stand apart in the source; their conditions may differ.
What was measured:
[1] = test system: pre-clinical tumor models; assay: Pre-clinical tumor models; assay type: in vivo
[2] = test system: normal human B cells; assay: Western blot of survival and signaling markers, rhsCD40L-stimulated B cells (Example 5, FIG. 1); assay type: cell-based
Excerpt: Cells were lysed and whole cell lysates resolved by SDS-PAGE and Western blotting using antibodies specific to human cPARP, Mcl-1, Bcl-xl, p-Akt, and p-p38 MAPK. All membranes were stripped and re-probed for either β-actin or total Akt or p38 MAPK protein, as appropriate.

[3] = test system: normal human B cells; assay: Western blot of phosphorylated signaling proteins in sCD40L-stimulated B cells; assay type: cell-based; conditions: 1 μg/ml sCD40L, 20 minutes
Procedure: In these experiments, 1.0×10^6 normal human B cells from healthy donors (percent purity between 85-95%) were stimulated with 1 μg/ml sCD40L (Alexis Corporation, Bingham, Nottinghamshire, UK). […] Cells were collected at 0 and 20 minutes. Phosphorylated IKKα (Ser180) and IKKβ (Ser 181) and total IKKβ controls were detected in cell lysates by Western blot.
(§1) In these experiments, 1.0×10^6 normal human B cells from healthy donors (percent purity between 85-95%) were serum starved in 1% FBS-containing media and stimulated with 1 μg/ml sCD40L (Alexis Corporation, Bingham, Nottinghamshire, UK). […] Cells were collected at 0 and 20 minutes. Phospho-IKKα, phospho-IKKβ, total IKKβ, phospho-ERK, total ERK, phospho-AKT, total AKT, phospho-p38, and total p38 were detected in cell lysates by Western blot.
as §1, with “Phospho-ERK,” for “Phospho-IKKα, phospho-IKKβ, total IKKβ, phospho-ERK, total ERK,”, “phospho-IKKα/β,” for “phospho-p38,”, “[…]” for “total p38”

[4] = 2 μg/ml rhsCD40L, 10 μg/ml antibody, 24 hr

Substance: CHIR-12.12: fully human anti-CD40 monoclonal antibody of the IgG1 isotype, hybridoma 153.8E2.D10.D6.12.12, ATCC PTA-5543, SEQ ID NO:2 and 4
- anti-tumor potency compared with rituximab [1]: more potent anti-tumor antibody than is rituximab
- expression of anti-apoptotic proteins Mcl-1 and Bcl-xl [2, 4]: inhibited the expression of the anti-apoptotic proteins Mcl-1 and Bcl-xl
- phosphorylation of Akt and p38 MAPK [2, 4]: inhibiting the phosphorylation of the downstream signaling proteins
- CD40L-induced signaling and survival of normal human B cells ([2]; FIG. 1): blocked
- phosphorylation of IKKα (Ser180) and IKKβ (Ser 181) ([3]; 10 μg/ml antibody): abrogated this response to sCD40L stimulation
- IKKα/β, ERK, AKT and p38 phosphorylation ([3]; serum starved, 1 and 10 μg/ml antibody): inhibited phosphorylation; also recorded: abrogated the effects of sCD40L stimulation on these signaling pathways
- phospho-ERK, phospho-AKT, phospho-IKKα/β, compared with PI3K/AKT and MEK inhibitors ([3]; serum starved): abrogated the phosphorylation of all of these signal transduction molecules
